The values that follow come from patent US9399663B2, “Competitive inhibitor of GP120” (priority 2014, dated 2016).

“And” between values parts separate entries of the source, which are not always exact repeats. Identical values can stand only once. Like-named read-outs stand apart in the source and are kept apart here.

The subject of one assay is assembled MTs. The experiment in a line: SPR (BIACORE T200) binding to immobilized assembled microtubules. The arrangement: species or system Porcine. How it is done: (§1) Surface plasmon resonance (SPR). BIACORE® T200™ was used to determine the kinetic parameters for the binding of recombinant TUBB3, tubulin dimer, and assembled microtubules (ligands) to the various isoforms of gp120 or related peptides (analytes). Recombinant TUBB3, tubulin dimer, and assembled MTs were covalently attached to different flow cells of a carboxymethyldextran (CM5) sensor chip by amine coupling. The chip surface was activated for 720 sec at 10 μL/min with of 1:1 mixture of 0.1 M N-Hydroxysuccinimide (NHS) and 0.5 M 1-Ethyl-3-(-3-dimethylaminopropyl)-carbodiimide hydrochloride (EDC). […] After ligand capture, the surfaces were deactivated by injecting 1 M ethanolamine for 720 sec at 10 μL/min. HBS-P (10 mM HEPES, pH7.4, 150 mM NaCl, 0.05% P-20) with 2 mM MgCl2 used as the running buffer. Flow cell 1 on each chip was left empty and used for reference surface. TUBB3 (1040 RU), tubulin dimer (2086 RU), and assembled MTs (990 RU) were captured on the remaining 3 flow cells. Kinetic studies were performed by injecting different concentrations of the analytes in triplicate. The chip surface was regenerated by with 10 mM glycine pH 1.5 injected for 30 sec at a flow rate of 100 μL/min. Each sample was injected for 60 sec (contact time) followed by a dissociation time of 300 sec at a flow rate of 100 μL/min. Data was analyzed with BIACORE® T200™ Evaluation Software (version 1) to determine the equilibrium dissociation constant (KD) from a 1:1 binding model. Binding studies with peptides Helix A and Helix B were done in the same way as described above. Kinetic studies were performed by injecting different concentrations (20 μM, 10 μM, 5 μM, 2.5 μM, 1.25 μM and 0.625 μM) of Helix A and Helix B. Competition experiments with Helix A and Helix B were performed by mixing 100 nM gp120 isoforms with 10 μM of each peptide and injecting over the sensorchip surface.
Recombinant TUBB3, tubulin dimer, and assembled MTs from bovine brains were immobilized on a BIACORE® CM5 chip by amine coupling. […] The kinetics of interaction was analyzed using a BIACORE® T200™ instrument. […]
(In general: SPR reads the build-up and loss of mass on a sensor chip optically.)

In another assay the target is T1, tubulin β-3 (TUBB3) (Rattus norvegicus, UniProt Q4QRB4).
T1 construct: Neurons exposed to gp120IIIB were lysated in RIPA buffer; endogenous in cells; host or cells: primary cortical neurons from embryonic (E17-18) Sprague Dawley rats
Description: LC-MS/MS of gp120 immunocomplex from lysates of gp120-treated neurons. The format is binding. As to conditions: anti-gp120 immunoprecipitation. The protocol:
LC-MS/MS analysis identifies tubulin β-3 (TUBB3) as an interactor of gp120IIIB Top panel: Chromatogram of the whole data set of gp120 interactors. In orange is indicated the peak (retention time=46.45 minutes) associated to peptide ^337[…]^350 (SEQ ID NO: 15) of TUBB3. Bottom panel: The fragmentation spectrum of peptide of TUBB3 is shown to identify TUBB3 among gp120IIIB interactors. The series of y sequence coverage is highlighted.
Liquid chomatography-mass spectrometry (LC-MS/MS): Neurons exposed to gp120IIIB were lysated in RIPA buffer with protease and phosphatase inhibitors (THERMO FISHER […]®) at 4° C. and then incubated with mouse anti-gp120 antibody. Gp120 complex of interacting proteins was eluted from immobilized protein A beads, reduced, alkylated and digested with trypsin. The tryptic digests were analyzed by mass spectrometry, using a LTQ ORBITRAP XL™ hybrid FTMS (Fourier transform mass spectrometer) (THERMO FISHER […]®). Peptide separation was performed with solvent A (0.1% HCOOH in H2O) and solvent B (0.1% formic acid in ACN), using the following gradient: from 5% B for 1 minute to 60% B in 70 minutes. Peptides were analyzed using a precursor mass range of 300-5000 Da. MS/MS analyses were used to query a non-redundant protein database (rat.fasta) using the software SEQUEST™. […]

The test system of a further assay is tubulin dimer. Description: SPR (BIACORE T200) binding to immobilized tubulin dimer. Further details: species or system Porcine. How it is done:
as §1, with “TUBB3 (1040 RU), tubulin dimer (2086 RU), and assembled MTs (990 RU) were captured on the remaining 3 flow cells.” left out
Recombinant TUBB3, tubulin dimer, and assembled MTs from bovine brains were immobilized on a BIACORE® CM5 chip by amine coupling. Different concentrations of gp120s (from 3.13 to 100 nM) were injected over the surface in triplicates in each experiment. The kinetics of interaction was analyzed using a BIACORE® T200™ instrument. […]

Another assay addresses T2, recombinant TUBB3 (Homo sapiens, UniProt Q13509).
T2 construct: purchased MyBioSource, San Diego, Calif
Description: SPR (BIACORE T200) binding to immobilized TUBB3. Particulars: for Kd: Ligand: TUBB3. How it is done:
as §1, with “TUBB3 (1040 RU), tubulin dimer (2086 RU), and assembled MTs (990 RU) were captured on the remaining 3 flow cells.” left out
Recombinant TUBB3, tubulin dimer, and assembled MTs from bovine brains were immobilized on a BIACORE® CM5 chip by amine coupling. Different concentrations of gp120s (from 3.13 to 100 nM) were injected over the surface in triplicates in each experiment. The kinetics of interaction was analyzed using a BIACORE® T200™ instrument. BiaEvaluation software was used to calculate binding affinities based on 1:1 binding model.

Where [1] appears, read: 100 nM gp120 alone, 60 sec injection.

T2 sequence (Q13509 whole entry): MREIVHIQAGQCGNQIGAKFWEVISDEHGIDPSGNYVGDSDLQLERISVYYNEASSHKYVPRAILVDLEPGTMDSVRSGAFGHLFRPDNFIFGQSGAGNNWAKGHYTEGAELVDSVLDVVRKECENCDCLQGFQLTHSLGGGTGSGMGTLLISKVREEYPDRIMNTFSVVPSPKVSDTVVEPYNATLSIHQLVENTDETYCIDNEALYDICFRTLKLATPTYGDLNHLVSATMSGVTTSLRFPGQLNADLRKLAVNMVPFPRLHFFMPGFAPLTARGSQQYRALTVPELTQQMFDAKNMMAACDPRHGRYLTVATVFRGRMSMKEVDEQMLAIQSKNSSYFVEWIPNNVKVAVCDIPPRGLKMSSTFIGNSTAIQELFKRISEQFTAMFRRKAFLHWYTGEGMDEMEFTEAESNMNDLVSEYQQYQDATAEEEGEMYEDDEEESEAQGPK
T1 sequence (P68370 whole entry): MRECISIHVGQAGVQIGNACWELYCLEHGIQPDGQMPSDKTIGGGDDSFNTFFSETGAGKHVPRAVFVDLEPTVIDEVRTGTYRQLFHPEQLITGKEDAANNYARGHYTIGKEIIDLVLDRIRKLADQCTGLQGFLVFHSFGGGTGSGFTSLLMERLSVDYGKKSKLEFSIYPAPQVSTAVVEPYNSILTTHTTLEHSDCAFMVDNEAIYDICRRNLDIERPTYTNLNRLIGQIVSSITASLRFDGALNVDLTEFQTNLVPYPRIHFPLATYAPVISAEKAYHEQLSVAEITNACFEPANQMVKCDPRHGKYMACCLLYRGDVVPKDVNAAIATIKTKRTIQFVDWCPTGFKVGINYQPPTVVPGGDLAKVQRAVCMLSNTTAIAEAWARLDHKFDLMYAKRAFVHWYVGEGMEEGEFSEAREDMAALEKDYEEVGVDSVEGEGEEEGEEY
T1 sequence (Q4QRB4 whole entry): as the sequence (Q13509 whole entry) above, with E441D counted along it

For orientation: Kd means the equilibrium constant for the complex coming apart. As to “gp120IIIB: HIV envelope protein gp120, strain IIIB, purchased from Immunodiagnostics”, the “SPR response (4-1) RU, Fc4: Microtubules 970 RU” value in the assay on assembled MTs (setting [1]) is 19 RU and 15 RU and 23.2 RU. In addition, the Kd at assembled MTs (Ligand: Assembled MTs, mean of two independent experiments) is 10 nM; on tubulin dimer (Ligand: Tubulin Dimer, mean of two independent experiments), 12.3 nM; with recombinant TUBB3 (mean of two independent experiments, read-out: Mean KD), 7.5 nM; with recombinant TUBB3 (single experiment, gp120 3.13 to 100 nM, 1:1 binding model, read-out: KD) it was 7.91 nM and 7.05 nM. The “TUBB3 identified among gp120 interactors (LC-MS/MS)” value with tubulin β-3 (TUBB3) is “interactor”. The “SPR response (3-1) RU, Fc3: Tubulin Dimer 1900 RU” value in the assay on tubulin dimer (setting [1]) is 21 RU and 14 RU and 18.6 RU. Further, in the assay with recombinant TUBB3 (setting [1]), the “SPR response (2-1) RU, Fc2: Tubulin β-3 1092 RU” value is 35 RU and 44 RU.
